The values that follow come from ChEMBL document CHEMBL4651402, “Screening of ~5500 FDA-approved drugs and clinical candidates for anti-SARS-CoV-2 activity” (2021).

pIC50: −log10 of the molar value.

The subject of the experiment is SARS-CoV-2. Kind of experiment: microbe, parasite or virus in culture. The conditions noted are these: Severe acute respiratory syndrome coronavirus 2, Vero C1008, 48 h; for IC50: read-out: pIC50 (converted).

Usually pIC50 stands for −log10 of the IC50, conventionally taken in molar units. As for `CN1CCCCC1CCN1c2ccccc2Sc2ccc([S+](C)[O-])cc21` (centres undefined) [MESORIDAZINE], the negative logarithm of the IC50 (pIC50) was less than 4.70 and the IC50 was greater than 20 µM.

With `COc1cc([S+](C)[O-])ccc1-c1nc2cccnc2[nH]1` (centres undefined) [SULMAZOLE], the pIC50 was less than 4.70 and the IC50 was greater than 20 µM.

Turning to `Cn1c(=O)c2c(ncn2CC(O)CO)n(C)c1=O` (centres undefined) [DYPHYLLINE], the negative-log IC50 (pIC50) is less than 4.70 and the IC50 is greater than 20 µM.

On to `Cn1c(=O)c2c(ncn2CCOC(=O)C(C)(C)Oc2ccc(Cl)cc2)n(C)c1=O` [THEOFIBRATE], for which the negative logarithm of the IC50 (pIC50) was less than 4.70 and the IC50 was greater than 20 µM.

Regarding `Nc1nc(=O)n([C@@H]2CS[C@H](CO)O2)cc1F` [EMTRICITABINE], the negative-log IC50 (pIC50) is less than 4.70 and the IC50 is greater than 20 µM.

For the compound `CNC(=O)[C@H]1O[C@@H](n2cnc3c(NCc4cccc(I)c4)nc(Cl)nc32)[C@H](O)[C@@H]1O` [NAMODENOSON], the pIC50 is less than 4.70 and the IC50 was greater than 20 µM.

With `CCc1nn(CCCN2CCN(c3cccc(Cl)c3)CC2)c(=O)n1CCOc1ccccc1` [NEFAZODONE], the negative logarithm of the IC50 (pIC50) was less than 4.70 and the IC50 was greater than 20 µM.

Consider `O=C(C1CCCCC1)N1CC(=O)N2CCCc3ccccc3C2C1` (centres undefined), for which the pIC50 is less than 4.70 and the IC50 is greater than 20 µM.

For `C=C1C/C(=C/C)C(=O)O[C@@H]2CCN3CC=C(COC(=O)[C@]1(C)O)[C@H]23` [SENECIPHYLLINE], the pIC50 was less than 4.70 and the IC50 is greater than 20 µM.

Regarding `COc1ccc(CN(CCN(C)C)c2ncccn2)cc1` [THONZYLAMINE], the negative-log IC50 (pIC50) was less than 4.70 and the IC50 is greater than 20 µM.

Consider `CC(C(=O)O)c1ccc(C(=O)c2cccs2)cc1` (centres undefined) [SUPROFEN], for which the pIC50 was less than 4.70 and the IC50 was greater than 20 µM.

Turning to `COc1cc(/C=C/C(=O)N2CCN(CC(=O)N3CCCC3)CC2)cc(OC)c1OC` [CINEPAZIDE], the negative-log IC50 (pIC50) is less than 4.70 and the IC50 is greater than 20 µM.

Take `COC(=O)[C@H](Cc1ccccc1)NC(=O)[C@@H](N)CC(=O)O`: the pIC50 is less than 4.70 and the IC50 is greater than 20 µM.

For the compound `O=C(/C=C/C=C/c1ccc2c(c1)OCO2)N1CCCCC1` [PIPERINE], the negative-log IC50 (pIC50) is less than 4.70 and the IC50 was greater than 20 µM.

Take `O[C@H](CNC[C@@H](O)[C@H]1CCc2cc(F)ccc2O1)[C@@H]1CCc2cc(F)ccc2O1`: the negative-log IC50 (pIC50) was less than 4.70 and the IC50 was greater than 20 µM.

On to `CCOC(=O)/C=C(C)/C=C/C=C(C)/C=C/c1c(C)cc(OC)c(C)c1C` [ETRETINATE], for which the pIC50 was less than 4.70 and the IC50 was greater than 20 µM.

Regarding `C#C[C@]1(O)CC[C@H]2[C@@H]3CCC4=CC(=NO)CC[C@@H]4[C@H]3CC[C@@]21CC`, the pIC50 is less than 4.70 and the IC50 was greater than 20 µM.

Turning to `O=C(CN1CCN(Cc2ccc3c(c2)OCO3)CC1)N1c2ccccc2Sc2ccccc21` [FENOVERINE], the pIC50 is less than 4.70 and the IC50 is greater than 20 µM.

Turning to `OC(CSc1ncnc2[nH]cnc12)CN1CCN(C(c2ccc(F)cc2)c2ccc(F)cc2)CC1` (centres undefined) [CARSATRIN], the pIC50 is less than 4.70 and the IC50 is greater than 20 µM.

As to `COc1ccc(-c2cc(=O)c3c(OC)cc(OCC(=O)O)cc3o2)cc1OC` [RECOFLAVONE], the pIC50 is less than 4.70 and the IC50 is greater than 20 µM.

`CCC1(O)CC2CN(CCc3c([nH]c4ccccc34)C(C(=O)OC)(c3cc4c(cc3OC)N(C)C3C(O)(C(=O)OC)C(OC(C)=O)C5(CC)C=CCN6CCC43C65)C2)C1` (centres undefined): the pIC50 was less than 4.70 and the IC50 is greater than 20 µM.

`NC(=O)CCC/N=C(/c1ccc(Cl)cc1)c1cc(F)ccc1O`: the negative-log IC50 (pIC50) was less than 4.70 and the IC50 was greater than 20 µM.

Take `CO[C@H]1C(O)C[C@H](O[C@H]2C(O)C[C@H](O[C@H]3C(O)C[C@H](OC4CC[C@@]5(C)C(CCC6C5CC(O)[C@]5(C)[C@@H](C7=CC(=O)OC7)CCC65O)C4)OC3C)OC2C)OC1C` (some centres undefined): the pIC50 was less than 4.70 and the IC50 is greater than 20 µM.

On to `CCN(CCCCOC(=O)c1ccc(OC)c(OC)c1)C(C)Cc1ccc(OC)cc1` (centres undefined) [MEBEVERINE], for which the pIC50 is less than 4.70 and the IC50 is greater than 20 µM.

For `CCOc1ccc(Cc2cc([C@]34OC[C@](CO)(O3)[C@@H](O)[C@H](O)[C@H]4O)ccc2Cl)cc1` [ERTUGLIFLOZIN], the pIC50 was less than 4.70 and the IC50 was greater than 20 µM.

As for `COc1ccc(-c2nc(N3CCOCC3)c3sc(CN(C)c4ncc(C(=O)NO)cn4)cc3n2)cn1` [FIMEPINOSTAT], the pIC50 is less than 4.70 and the IC50 is greater than 20 µM.

On to `COc1ccc(C(=O)c2c(C)n(CCN3CCOCC3)c3ccccc23)cc1` [PRAVADOLINE], for which the negative logarithm of the IC50 (pIC50) was less than 4.70 and the IC50 is greater than 20 µM.

As to `Cc1nc2ccccc2c(=O)n1-c1ccccc1Cl` [MECLOQUALONE], the pIC50 is less than 4.70 and the IC50 was greater than 20 µM.

As for `COC(=O)c1ccc2c(c1)NC(=O)/C2=C(\Nc1ccc(N(C)C(=O)CN2CCN(C)CC2)cc1)c1ccccc1` [NINTEDANIB], the pIC50 is less than 4.70 and the IC50 was greater than 20 µM.

As for `CCN(CC)CC(=O)Nc1c(C)cccc1C` [LIDOCAINE], the pIC50 was less than 4.70 and the IC50 is greater than 20 µM.

Turning to `C[C@@H]1CCC2[C@](C)(CO)[C@@H](O)CC[C@]2(C)[C@]12CCC(CO)(CCO)O2` (some centres undefined), the pIC50 was less than 4.70 and the IC50 was greater than 20 µM.

On to `Cc1cccc(Nc2ccncc2S(=O)(=O)NC(=O)NC(C)C)c1` [TORSEMIDE], for which the negative logarithm of the IC50 (pIC50) was less than 4.70 and the IC50 was greater than 20 µM.

Turning to `CN(C)CC(=O)O`, the negative logarithm of the IC50 (pIC50) is less than 4.70 and the IC50 was greater than 20 µM.

As to `CCn1cc(C(=O)O)c(=O)c2cc(F)c(N3CCNC(C)C3)c(F)c21` (centres undefined) [LOMEFLOXACIN], the negative logarithm of the IC50 (pIC50) is less than 4.70 and the IC50 is greater than 20 µM.

As to `COc1ccc(CN(CCN(C)C)c2ccccn2)cc1` [PYRILAMINE], the negative-log IC50 (pIC50) is less than 4.70 and the IC50 was greater than 20 µM.

With `CC12CCC(=O)C(O)=C1CCC1C2CCC2(C)C1CC[C@]2(C)O` (some centres undefined), the pIC50 was less than 4.70 and the IC50 was greater than 20 µM.

On to `CCCCOC(=O)c1ccc(O)cc1` [BUTYLPARABEN], for which the pIC50 was less than 4.70 and the IC50 was greater than 20 µM.

As to `Cc1cc(/C=C/c2ccc3cc(N(C)C)ccc3[n+]2C)c(C)n1-c1ccccc1`, the negative-log IC50 (pIC50) was less than 4.70 and the IC50 was greater than 20 µM.

On to `CC(CCN1CCN(c2ccc(F)cc2)CC1)NC(=O)c1cccnc1` (centres undefined) [NIAPRAZINE], for which the negative-log IC50 (pIC50) is less than 4.70 and the IC50 is greater than 20 µM.

For the compound `O=C(Nc1ccc(Cl)cc1)c1cc(Br)ccc1O` [BROMOCHLOROSALICYLANILIDE], the pIC50 is less than 4.70 and the IC50 is greater than 20 µM.

Regarding `C[N+]1(CCC(C(N)=O)(c2ccccc2)c2ccccc2)CCCCC1`, the pIC50 is less than 4.70 and the IC50 is greater than 20 µM.

For the compound `c1ccc2cc(COC3CCNCC3)ccc2c1` [LITOXETINE], the negative-log IC50 (pIC50) was less than 4.70 and the IC50 is greater than 20 µM.

Regarding `COCCCOc1cc(C[C@@H](C[C@H](N)[C@@H](O)C[C@H](C(=O)NCC(C)(C)C(N)=O)C(C)C)C(C)C)ccc1OC`, the negative logarithm of the IC50 (pIC50) is less than 4.70 and the IC50 was greater than 20 µM.

As for `CC(C)c1c(C(=O)Nc2ccccc2)c(-c2ccccc2)c(-c2ccc(F)cc2)n1CC[C@@H](O)C[C@@H](O)CC(=O)O` [ATORVASTATIN], the pIC50 was less than 4.70 and the IC50 was greater than 20 µM.

For the compound `CS(=O)(=O)Nc1cc2occ(NC=O)c(=O)c2cc1Oc1ccccc1` [IGURATIMOD], the negative-log IC50 (pIC50) was less than 4.70 and the IC50 is greater than 20 µM.

As for `N[C@@H](CC(=O)N1CCn2c(nnc2C(F)(F)F)C1)Cc1cc(F)c(F)cc1F` [SITAGLIPTIN], the negative-log IC50 (pIC50) was less than 4.70 and the IC50 was greater than 20 µM.

Consider `CN(c1nc2ccccc2s1)C1CCN(C[C@@H](O)COc2ccc(F)c(F)c2)CC1`, for which the pIC50 was less than 4.70 and the IC50 was greater than 20 µM.

As for `COC(=O)N[C@H](C(=O)N1CC2(CC2)C[C@H]1c1nc(-c2ccc3c(c2)C(F)(F)c2cc(-c4ccc5[nH]c([C@@H]6[C@H]7CC[C@H](C7)N6C(=O)[C@@H](NC(=O)OC)C(C)C)nc5c4)ccc2-3)c[nH]1)C(C)C`, the pIC50 is less than 4.70 and the IC50 is greater than 20 µM.

As to `Cc1ccccn1`, the negative logarithm of the IC50 (pIC50) is less than 4.70 and the IC50 is greater than 20 µM.

Take `Oc1ccc(C(O)CNCCCCCCNCC(O)c2ccc(O)c(O)c2)cc1O` (centres undefined) [HEXOPRENALINE]: the pIC50 is less than 4.70 and the IC50 is greater than 20 µM.

Take `CC(C(=O)O)c1ccc(C(=O)c2ccccc2)s1` (centres undefined) [TIAPROFENIC ACID]: the negative-log IC50 (pIC50) was less than 4.70 and the IC50 is greater than 20 µM.

`NC1CCCCC1N` (centres undefined): the pIC50 is less than 4.70 and the IC50 is greater than 20 µM.

`COc1ccccc1O` [GUAIACOL]: the pIC50 is less than 4.70 and the IC50 is greater than 20 µM.

On to `COc1ccc2c3c1OC1C(OC(C)=O)=CCC4C(C2)N(C)CCC314` (centres undefined), for which the negative-log IC50 (pIC50) is less than 4.70 and the IC50 is greater than 20 µM.

Take `CCCCC(CC)C1NC(=O)N(SC(Cl)(Cl)Cl)C1=O` (centres undefined) [CHLORDANTOIN]: the negative logarithm of the IC50 (pIC50) is less than 4.70 and the IC50 is greater than 20 µM.

In the case of `CCOc1ccc(/N=N/c2ccc(N)cc2N)cc1` [ETHOXAZENE], the negative logarithm of the IC50 (pIC50) is less than 4.70 and the IC50 was greater than 20 µM.

On to `O=C(O)Cc1sc(-c2ccccc2)nc1-c1ccc(Cl)cc1` [FENTIAZAC], for which the pIC50 was less than 4.70 and the IC50 is greater than 20 µM.

With `Oc1ccc(Cl)c2c1CCC2` [CHLORINDANOL], the negative-log IC50 (pIC50) was less than 4.70 and the IC50 is greater than 20 µM.

On to `COc1ccc(C(CN(C)C)C2(O)CCCCC2)cc1` (centres undefined) [VENLAFAXINE], for which the pIC50 was less than 4.70 and the IC50 was greater than 20 µM.

`Cn1cc(C(=O)[C@@H]2CCc3[nH]cnc3C2)c2ccccc21` [RAMOSETRON]: the pIC50 was less than 4.70 and the IC50 was greater than 20 µM.

Regarding `COc1ccc(-c2cc(=O)c3ccccc3o2)cc1` [4'-METHOXYFLAVONE], the pIC50 is less than 4.70 and the IC50 was greater than 20 µM.

Regarding `CCC1C(=O)Nc2ccc(F)cc2N1C(=O)OC(C)C` (centres undefined), the pIC50 is less than 4.70 and the IC50 is greater than 20 µM.
